Reference: patent publication US7704969B2, “Transfection complexes” (ICH Productions Limited, priority 2001, dated 2010)
“Also recorded” adds a separate entry of the source. Bridge positions count the residues as written; N and C are the ends. Ends that are not written are not given here.

Key:
HAE cells [1] = assay: Whole cell ELISA of phage binding to HAE cells; parameters: species or system human; conditions: phage sequences of Table 1a compared and ranked using a range of phage titres
Experimental: Following incubation of the phage with the HAE cells, the cells are washed and retained phage may then be detected by immunostaining. Cell specificity is assessed by comparing phage binding to target cells with phage binding to the wells on which the cells were plated and with phage binding to NIH 3T3 fibroblast control cells.
Binding of phage to tissue cultured HAE cells was investigated by whole cell ELISA. Approx. 8×10^4 HAE cells in […] Hanks Balanced Salts Solution (HBSS) were added to each well of a 96 well plate and incubated at 37° C. until cells had adhered. The cells were washed gently in HBSS before blocking by the addition of 0.5% BSA in HBSS for 30 mins. […] Bound phage were detected by the addition of horseradish peroxidase (HRP)-conjugated anti-M13 antibody diluted 1:5000 in blocking buffer for 1 hour, before washing three times in PBS and developing the ELISA with 2,2′-azino-bis(3-ethylbenzthiazoline 6-sulfonic acid) (ABTS) substrate solution and reading the absorbance on a plate-reading spectrophotometer at 405 nm. […]
Approx. […] Bound phage were detected by the addition of HRP-conjugated anti-M13 antibody diluted 1:5000 in blocking buffer for 1 hour, before washing three times in PBS, developing the ELISA with ABTS solution, and reading the absorbance at 405 nm.

HAE cells [2] = assay: Luciferase reporter gene transfection of HAE cells with lipid/peptide/DNA vector complexes; format: cell-based, human
Text: Transfection complexes were made by mixing the components in the order 1) lipid, then 2) peptide and, finally 3) DNA, followed by dilution. The vector complex suspension was applied to HAE cells and control cells. Vector complexes incorporating peptide Q ([K]16-GACLQHKSMPCG [SEQ. ID. NO.:12]) and vector complexes incorporating peptide P ([K]16-GACLPHKSMPCG [SEQ. ID. NO.:13]) were synthesised and compared with vector complexes incorporating peptide S ([K]16-GACYKHPGFLCG] [SEQ. ID. NO.:14]) which is a control peptide having the same amino acid constituents as peptide P but in a randomised order (the “scrambled control”), Peptide 12 ([K]16—XSXGACRRETAWACG [SEQ. ID. NO.:15]), a targeting peptide known to bind to alpha 5 beta 1 integrins and Peptide K ([K]16) a DNA binding moiety with no targeting ligand attached.
Transfections of HAE cells and 3T3 cells were performed in 96 well plates containing 20,000 cells plated 24 hours earlier. In the transfection vector complex, peptide to DNA charge ratios (+/−) were used at 1.5:1, 3:1 and 7:1. At physiological pH, DNA carries negative charge and the polycationic-nucleic acid binding component carries positive charge. The “charge ratio” is accordingly the ratio of the charges of the two components in the complex. The lipid component was maintained at a constant proportion, by weight, relative to DNA of 0.75:1.
Control peptide (S), consisted of the same amino acid constituents as the targeting peptide P but in a randomised order, was synthesised for incorporation into lipopolyplex formulations. Transfections of HAE and 3T3 cells were performed in 96 well plated containing 20,000 cells plated 24 h earlier. In the transfection complex, peptide to DNA charge ratios (+/−) were used at 1.5:1, 3:1 and 7:1. The lipid component was maintained at a constant proportion, by weight, relative to DNA of 0.75:1. Prior to making transfection complexes the lipid component was diluted to a concentration of 15 μg per ml, the peptide was prepared at 0.1 mg/ml and the DNA was at 20 μg per ml. All dilutions were performed with OptiMEM reduced serum tissue culture medium (Life Technologies). Transfection complexes were made by mixing of components in the order 1) lipid then 2) peptide and finally 3) DNA, then diluted with OptiMEM to a concentration relative to the DNA component of 0.25 μg DNA per 200 μl which volume was added to each well. Each group was performed in replicates of six. The vector complex suspension was then applied to cells within 5 minutes of preparation. Transfection incubations were performed at 37° C. for 4 h. Luciferase reporter gene assays in cell free extracts were performed after 48 h incubation using a kit from Promega according to the manufacturer's protocol. […]

3T3 cells = assay: Luciferase reporter gene transfection of 3T3 cells; format: cell-based, mouse; conditions: FIG. 8, best peptide:DNA charge ratio, expression after 24 hours

Question: How did the “binding affinity to HAE cells (binding strength by ELISA)” value (HAE cells [1]) turn out when “LPHKSMP (not fully specified (N-terminus, C-terminus)) [basis of peptide P]” was run?
Answer: highest binding affinity

Question: What does the source list for “[K]16-GACLPHKSMPCG (KKKKKKKKKKKKKKKKGACLPHKSMPCG; disulfide 19-27 (inferred)) [peptide P]”?
Answer: transfection efficiency relative to peptide 12 (next best peptide) (HAE cells [2]; peptide P at 7:1 charge ratio vs peptide 12 at 3:1 charge ratio, luciferase): five-fold higher; transfection performance relative to peptide Q (HAE cells [2]; transfection assay, FIG. 3): significantly better; transfection efficiency relative to peptide K (K16, no targeting ligand) (HAE cells [2]; vector complexes, luciferase): almost nine-fold higher; also recorded: almost nine-fold more efficient

Question: Which “transfection efficiency relative to peptide 6” value (3T3 cells) does the source give for [K]16-GACLQHKSMPCG [peptide Q] here?
Answer: approximately 1.5 times

Question: Which “transfection efficiency relative to peptide 6” value (3T3 cells) does the source give for “[K]16-GACSERSMNFCG (KKKKKKKKKKKKKKKKGACSERSMNFCG; disulfide 19-27 (inferred))” here?
Answer: approximately 1.5 times

Question: Which “transfection performance of peptide S relative to peptide K16” value (HAE cells [2]; in transfection complexes) does the source give for “[K]16-GACYKHPGFLCG (KKKKKKKKKKKKKKKKGACYKHPGFLCG; N-terminal K16 oligolysine; Targeting peptide, see description) [peptide S, reference compound]” here?
Answer: less than a tenth as good
